Results reported in US20220054561A1, “LACHNOSPIRACEAE MITIGATES AGAINST RADIATION-INDUCED HEMATOPOIETIC/GASTROINTESTINAL INJURY AND DEATH, AND PROMOTES CANCER CONTROL BY RADIATION” (priority 2018, published 2022).

Columns and labels:
Assay type in all cases: in vivo, mouse
[1] = tested on: SPF C57BL/6 mice; experiment: Acetate, butyrate or propionate supplemented water for 8 weeks followed by lethal dose TBI
Text: FIG. 11A is a schematic of short chain fatty acids (SCFAs) treatment. Survival rates (FIG. 11B) and clinical scores (FIG. 11C) were monitored for 30 days. Femurs and spleens were stained for H&E and quantified for BM cellularity and spleen EMH scores (FIG. 11D). White pulp (WP, black dash circles), red pulp (RP, area between black solid lines), and megakaryocytes (black arrows) are shown. […] Total CMP, GMP and MEP percentages of Lin^− cells are shown in the right histogram. Representative images are shown. Mucus layer is indicated by area between dash lines and crypt length is indicated by double-headed arrow. Mucus layer thickness and crypt length were quantified. Error bars show SEM, *p<0.05, **p<0.01, *** p<0.001 determined by log-rank (Mantel Cox) test (B), Mann-Whitney test for area under the curve (AUC) (C) and Student's t test (D, E, F).
SPF C57BL/6 mice were treated with acetate, butyrate or propionate supplemented water for 8 weeks respectively, followed by a lethal dose TBI (FIG. 11A). […] To examine the effect of propionate on the gastrointestinal system, Alcian blue and periodic acid-Schiff (AB/PAS) staining of all intracellular mucin glycoproteins within goblet cells was completed.

[2] = tested on: SPF C57BL/6 mice; experiment: Butyrate contained water for 8 weeks followed by total body irradiation; conditions: butyrate water 8 weeks, TBI; control recipients 43%
Method: Butyrate production was determined by Mass Spectrometry from Non-TBI controls versus LL-TBI survivors (FIG. 7A), Control Recipients versus Survivor Recipients from dirty cage sharing expt. as shown in FIG. 2A (FIG. 7B), Control Recipients versus Survivor Recipients from FMT in GF mice expt. as shown in FIG. 4A (FIG. 7C). FIG. 7D includes a schematic of butyrate treatment of 6-8 weeks SPF C57BL/6 mice. After 8 weeks of butyrate treatment, recipients received total body irradiation. Survival rates (FIG. 7E), clinical scores (FIG. 7F), body weight changes (FIG. 7G) and body temperatures (FIG. 7H) were monitored for 30 days post TBI. (Control Recipients, n=14; Butyrate Recipients, n=16).
It is well established that Clostridiales and Lachnospiraceae bacterial groups produce short chain fatty acids (SCFAs) via fermentation of dietary polysaccharides^32-34. SCFAs especially butyrate, which is the most commonly studied SCFA, are important substrates for maintaining intestinal epithelium and play a role in regulating immune system and inflammatory response. Increased abundance of Lachnospiraceae is expected to enhance the capability to produce SCFAs. To validate this hypothesis, the concentrations of lactate, propionate, isobutyrate and butyrate were detected in each individual Lachnospiraceae strain within the disclosed 23 stains pool. […]

[3] = tested on: SPF mice; experiment: Tryptophan metabolites treatment and lethal radiation; conditions: lethal radiation, monitored 30 days
Method: Metabolite profiles were measured in fecal samples of AM-Ctrl and ES mice at Day 290 post TBI. Total ion chromatogram (TIC) metabolomic cloudplot (p<0.01) (FIG. 14A) and PCA score plot (14B) show distinct metabolites separation between these two groups. […] In FIG. 14D, metabolic network graphs (MetaMapp) were generated to integrate the biochemical pathways and chemical relationships of all detected metabolites. Identified metabolites are represented by circle nodes, with lower transparency indicating lower p-values from Welch's t-test. Lighter grey nodes denote metabolites with higher abundance in ES group; darker grey nodes denote those higher in AM-Ctrl group. Solid grey lines connecting distinct metabolites symbolize KEGG reactant pair links; dashed grey lines symbolize chemical similarity with a Tanimoto coefficient score >0.7. Tryptophan metabolites are highlighted by a large shadow (labelled), while other metabolite families are distinguished by separate shadowed areas. FIG. 14E is a schematic of tryptophan metabolites treatment. Survival rates (FIG. 14F) and clinical scores (FIG. 14G) were monitored for 30 days. Error bars show SEM, *p<0.05, **p<0.01, ***p<0.001 determined by log-rank (Mantel Cox) test (FIG. 14F) and Mann-Whitney test for area under the curve (AUC) (FIG. 14G). […]

**Q.** What does the source list for `CCC(=O)O` [propionate]?
**A.** bone marrow cellularity ([1]; H&E femurs): Elevated bone marrow cellularity; mucus thickness and crypt length ([1]; colon AB/PAS staining, versus control): significantly increased; total Sca1−cKit+ progenitor cells (GMP, CMP, MEP) in BM ([1]; flow cytometry, versus control recipients): significant increase; Thirty-day survival rates ([1]; supplemented water 8 weeks, lethal dose TBI, control group 28%): 79%; clinical scores ([1]; versus control group): lower clinical scores

**Q.** With `CC(=O)O` [acetate] as the compound, how does the “protection (survival, clinical scores)” value ([1]; supplemented water 8 weeks, lethal dose TBI) read?
**A.** slight protection

**Q.** Which thirty-day survival rate [2] does the source give for `CCCC(=O)O` [butyrate] here?
**A.** 68%

**Q.** Which survival rates [3] does the source give for `O=Cc1c[nH]c2ccccc12` [I3A, indole-3-carboxaldehyde] here?
**A.** around 75%

**Q.** With `O=C(O)c1cc(=O)c2ccccc2[nH]1` [KYNA, kynurenic acid] as the compound, how does the survival rates [3] read?
**A.** around 75%
